Data from patent US11716944B1, “Method for improving one-time seedling rate of microspore embryoids of brassica campestris SSP. chinensis makino” (Anhui Agricultural University, priority 2021, dated 2023).

How the values were obtained:
[1] = test system: Brassica campestris ssp. Chinensis Makino; assay: Effects of different concentrations of 6-BA sprayed onto flower buds on the embryogenesis rate; type: in vivo; details: for embryogenesis rate increased by: compared with no 6-BA
Procedure: In this example, a method for improving a one-time seedling rate of microspore embryoids of Brassica campestris ssp. Chinensis Makino included the steps of: • (1) pretreatment of flower bud • a concentration of 100 mg/L of 6-BA was sprayed onto a flower bud of a plant of Brassica campestris ssp. Chinensis Makino at a full-bloom stage after squaring; on the second day after the spraying of 6-BA, an inflorescence, which was specifically a main inflorescence or a healthy inflorescence of a primary branch of a plant without insect pests and cracked buds, was selected, placed in a self-sealing bag and sprayed with clean water, and then stored in a refrigerator at 4° C. for 1 day for later use; • (2) isolation of microspores • a flower bud with a petal length/anther length between 0.5-1 was selected, firstly sterilized with 70% alcohol for 30 s, then sterilized with 0.1% HgCl2 under shaking for 6 min, and then rinsed with sterilized water for 2 times, with each time for 5 min; then, the flower bud was crushed in a B5 medium with a glass rod to release microspores, and the microspores were filtered by a 300-mesh steel-wire mesh screen and a cell mesh screen successively; subsequently, a filtrate was collected into a centrifugal tube and centrifuged under the condition of 1,000 r/min for 3 min; and after the centrifuging, a pellet was resuspended with a B5 medium, and the resuspended solution was centrifuged again under the condition of 1,000 r/min for 3 min to obtain a pellet as the purified microspores desired for the objective; • (3) culture of microspores • the purified microspores were diluted with a NLN medium, and a cell density was adjusted to about 1.5 × 10^5 /mL^-1 (at this time, the medium was pale yellow); subsequently, the diluted purified microspores were subpackaged into culture dishes, and added with phytic acid PA at a concentration of 0.15%; and finally, the microspores were subjected to heat shock treatment at 33° C. for 24 h, then transferred to culture in the dark at 25° C., and placed onto a shaker for shaking culture after embryoids visible to naked eyes appeared; and • (4) germination and seedling of embryoids • the cultured embryoids in a cotyledon stage with a length of 2.8 mm were transferred onto a MS medium for differentiation culture, wherein culture conditions were 4° C., 14 h of illumination by blue-red compound light/day, and 14 days of culture; and then, the culture was continued under a condition of 25° C. and 14 h of illumination by blue-red compound light/day until seedling; wherein the ratio of blue light to red light in the blue-red compound light was 1:1. This example was used for verifying the effects of different concentrations of 6-BA on the embryogenesis rate of Brassica campestris ssp. Chinensis Makino: Method: in the pretreatment process of the flower buds, after squaring of Brassica campestris ssp. Chinensis Makino, at the full flowering stage, 6-BA solutions with concentrations of 0, 50, 100, 150 and 200 mg/L were prepared and sprayed onto the flower buds respectively, so as to study the effects of different concentrations of 6-BA on the embryogenesis rate of Brassica campestris ssp. Chinensis Makino (other steps were the same, and were conducted with reference to Example 3).

[2] = test system: purified microspores of Brassica campestris ssp. Chinensis Makino; assay: Effects of different concentrations of phytic acid PA added in microspore culture on the embryogenesis rate; type: cell-based
Procedure: In this example, a method for improving a one-time seedling rate of microspore embryoids of Brassica campestris ssp. Chinensis Makino included the steps of: • (1) pretreatment of flower bud • a concentration of 100 mg/L of 6-BA was sprayed onto a flower bud of a plant of Brassica campestris ssp. Chinensis Makino at a full-bloom stage after squaring; on the second day after the spraying of 6-BA, an inflorescence, which was specifically a main inflorescence or a healthy inflorescence of a primary branch of a plant without insect pests and cracked buds, was selected, placed in a self-sealing bag and sprayed with clean water, and then stored in a refrigerator at 4° C. for 1 day for later use; • (2) isolation of microspores • a flower bud with a petal length/anther length between 0.5-1 was selected, firstly sterilized with 70% alcohol for 30 s, then sterilized with 0.1% HgCl2 under shaking for 6 min, and then rinsed with sterilized water for 2 times, with each time for 5 min; then, the flower bud was crushed in a B5 medium with a glass rod to release microspores, and the microspores were filtered by a 300-mesh steel-wire mesh screen and a cell mesh screen successively; subsequently, a filtrate was collected into a centrifugal tube and centrifuged under the condition of 1,000 r/min for 3 min; and after the centrifuging, a pellet was resuspended with a B5 medium, and the resuspended solution was centrifuged again under the condition of 1,000 r/min for 3 min to obtain a pellet as the purified microspores desired for the objective; • (3) culture of microspores • the purified microspores were diluted with a NLN medium, and a cell density was adjusted to about 1.5 × 10^5 /mL^-1 (at this time, the medium was pale yellow); subsequently, the diluted purified microspores were subpackaged into culture dishes, and added with phytic acid PA at a concentration of 0.15%; and finally, the microspores were subjected to heat shock treatment at 33° C. for 24 h, then transferred to culture in the dark at 25° C., and placed onto a shaker for shaking culture after embryoids visible to naked eyes appeared; and • (4) germination and seedling of embryoids • the cultured embryoids in a cotyledon stage with a length of 2.8 mm were transferred onto a MS medium for differentiation culture, wherein culture conditions were 4° C., 14 h of illumination by blue-red compound light/day, and 14 days of culture; and then, the culture was continued under a condition of 25° C. and 14 h of illumination by blue-red compound light/day until seedling; wherein the ratio of blue light to red light in the blue-red compound light was 1:1. This example was used for verifying the effects of different concentrations of phytic acid PA on the embryogenesis rate of Brassica campestris ssp. Chinensis Makino: Method: in the process of microspore culture, the purified microspores subjected to density dilution were subpackaged into culture dishes, and added with phytic acid PA at concentrations of 0, 0.01%, 0.1%, 0.15%, 0.5% and 1% respectively, so as to study the effects of different concentrations of phytic acid PA on the embryogenesis rate of Brassica campestris ssp. Chinensis Makino (other steps were the same, and conducted with reference to Example 3).

For `c1ccc(CNc2ncnc3[nH]cnc23)cc1` [6-BA], the Average embryogenesis rate ([1]; 6-BA 50 mg/L sprayed onto flower buds) was 0.92 embryo/bud, the “embryogenesis rate increased by” value ([1]; 6-BA 50 mg/L) was 38.46% and the Average embryogenesis rate ([1]; 6-BA 100 mg/L sprayed onto flower buds) was 1.56 embryo/bud. The “embryogenesis rate increased by” value ([1]; 6-BA 100 mg/L) was 100%, the Average embryogenesis rate ([1]; 6-BA 150 mg/L sprayed onto flower buds) was 1.08 embryo/bud and the “embryogenesis rate increased by” value ([1]; 6-BA 150 mg/L) was 17.95%. For the same compound, the Average embryogenesis rate ([1]; 6-BA 200 mg/L sprayed onto flower buds) was 0.74 embryo/bud and the “embryogenesis rate decreased by” value ([1]; 6-BA 200 mg/L, compared with that without application of the 6-BA solution) was 5.13%.

`O=P(O)(O)O[C@H]1[C@H](OP(=O)(O)O)[C@@H](OP(=O)(O)O)[C@H](OP(=O)(O)O)[C@@H](OP(=O)(O)O)[C@H]1OP(=O)(O)O` [PA, Phytic acid] was tested, and the Average embryogenesis rate ([2]; PA 0.01% in medium) was 0.774 embryo/bud, the “embryogenesis rate increased by” value ([2]; PA 0.01%, compared with the medium without addition of PA) was 21% and the Average embryogenesis rate ([2]; PA 0.1% in medium) was 1.495 embryo/bud. The “embryogenesis rate increased by” value ([2]; PA 0.1%, compared with the medium without addition of PA) was 134%, the Average embryogenesis rate ([2]; PA 0.15% in medium) was 1.137 embryo/bud and the “embryogenesis rate increased by” value ([2]; PA 0.15%, compared with the medium without addition of PA) was 78%. The Average embryogenesis rate ([2]; PA 0.5% in medium) was 0.789 embryo/bud, the “embryogenesis rate increased by” value ([2]; PA 0.5%, compared with the medium without addition of PA) was 23% and the Average embryogenesis rate ([2]; PA 1% in medium) was 0.487 embryo/bud. For the same compound, the “embryogenesis rate decreased by” value ([2]; PA 1%, compared with the medium without addition of PA) was 24%.
